# Measured values from article PMC5708526, “Targeting secondary protein complexes in drug discovery: studying the druggability and chemical biology of the HSP70/BAG1 complex” (Chemical Communications (Cambridge, England), 2017).
# Like-named read-outs stand apart in the source and are kept apart here.
# Key:
# [1] = biological target: T1, HSP72 (Homo sapiens, UniProt P0DMV8); assay: FP competition assay, displacement of bisaryl-ATTO-488 11 from primary HSP72 protein; format: binding
# T1 construct: made in house
# Description: (§1) To assess what effect the secondary HSP72/BAG1 complex had on the apparent affinity of the non-nucleotide bisaryl-ATTO-488 FP-probe 11, we carried out a similar BAG1 study. […] To confirm that the binding of BAG1 to HSP72 was not mutually exclusive, we screened the nucleotides ADP and ATP in a competition assay with bisaryl-ATTO-488 11 and HSP72 at a 50% bound fraction, with and without a saturating concentration of BAG1 (700 nM) (Fig. S7, ESI ^†). […]
# (§2) TRIS Tris(hydroxymethyl)aminomethane
# (§3) General Information: Unless otherwise stated the aqueous assay buffer contained 50 mM TRIS base pH 7.4, 150 mM NaCl, 6 mM MgCl2, 1 mM DTT, 0.1% (wt/wt) CHAPS. The assay was conducted using 384 Plus F ProxiPlates (PerkinElmer) with a final assay volume of 10 μL. Plates were centrifuged at 1000 rpm for 1 minute prior to incubation and read using an 2103 Envision Multilable Plate Reader. Excitation and emission wavelengths used for green probes were 480 nm and 535 nm, respectively.
# Fluorescence polarisation was measured in units of millipolarization (mP). All experiments were performed in triplicate, unless otherwise stated. Data were plotted and analysed using GraphPad Prism 6, graphical data represents the mean ± standard error of the mean for a single representative experiment. ATP-derived fluorescent probes (1.0 mM in aqueous) were purchased from Jena Bioscience. Human BAG-1M (10.9 μM in 20 mM TRIS base pH 7.4, 100 mM NaCl, 1 mM DTT, 1% (v/v) glycerol) was purchased from Enzo Life Sciences. […]
# Compound IC50 determination: Compounds (0.2 μL at 50 x screening concentration in DMSO) were dispensed using an ECHO 550 Liquid Handler (Labcyte Inc.). To the corresponding wells was added, 5 μL of probe molecule (20 nM in assay buffer) and 5 μL of protein (two times their final concentration in assay buffer) to give a 50% bound fraction. Tracer controls (10 nM probe molecule only) and bound tracer controls (10 nM probe in the presence of appropriate protein concentration) were included on each assay plate. IC50 determination was performed using non-linear least squares curve fitting (GraphPad Prism 6, log(inhibitor) vs. response— variable slope (four parameters)). […]
# (§4) Compound screen with and without BAG-1: Compounds (0.2 μL at 50 x screening concentration in DMSO) were dispensed using an ECHO 550 Liquid Handler (Labcyte Inc.). To the corresponding wells was added, 5 μL of probe molecule (20 nM in assay buffer), 2.5 μL of HSP72 (four times final concentration in assay buffer) and either 2.5 µL of BAG-1 (2.8 µM in 20 mM TRIS base pH 7.4, 100 mM NaCl, 1 mM DTT, 1% (v/v) glycerol) or 2.5 µL of BAG1 replacement buffer (20 mM TRIS base pH 7.4, 100 mM NaCl, 1 mM DTT, 1% (v/v) glycerol). The assay was performed in duplicate. Tracer controls (10 nM probe molecule only) and bound tracer controls (10 nM probe in the presence of appropriate protein concentration) were included on each assay plate.
# IC50 determination was performed using non-linear least squares curve fitting (GraphPad Prism 6, log(inhibitor) vs. response— variable slope (four parameters)).
# Fig. S1. Determination of assay binding window for bisaryl-ATTO-488 and ATP-ATTO-488. Polarisation values (mP) for 2-63 nM ATP-ATTO-488 (red) and bisaryl ATTO-488 (blue) in the presence (▼) and absence (▲) of 5 µM HSP72, ↔ represents the assay window at 10 nM probe concentration. All data points were tested in triplicate and are represented as the arithmetic mean ±
# [2] = biological target: T2, HSP72/BAG1 complex (Homo sapiens, UniProt P0DMV8); assay: FP competition assay, displacement of bisaryl-ATTO-488 11 from secondary HSP72/BAG1 complex; format: binding; settings: for change in affinity for HSP72/BAG1 complex compared to primary protein: 700 nM BAG1
# T2 construct: purchased Enzo Life Sciences (BAG-1M only)
# Description: as §1, §4
# IC50 determination was performed using non-linear least squares curve fitting (GraphPad Prism 6, log(inhibitor) vs. response— variable slope (four parameters)). […]
# Fig. S8. Representative competitive binding curves for ADP (A), ATP (B), compound 12 (C) and compound 13 (D) in the presence and absence of BAG1. Competition experiments in the presence of BAG1 (red) were performed using 10 nM biaryl-ATTO-488, 700 nM BAG1 and 140 nM HSP70 to give a 50% bound fraction. Competition experiments in the absence of BAG1 (blue) were performed using 10 nM biaryl-ATTO-488 and 180 nM HSP70 to give a 50% bound fraction. IC50 determination was performed using non-linear regression analysis (log(inhibitor) vs. response - Variable slope (four parameters)), all data points were tested in duplicate and are represented as the arithmetic mean ± SEM.
# [3] = biological target: HSP72-NBD; design: method as in PMID 19256508; settings: reported affinity for HSP72-NBD by surface-plasmon resonance; cited from earlier work
# [4] = biological target: T1, HSP72; assay: FP assay binding window and Z' determination
# Excerpt: As a result, the assay was not statistically robust, so could not be used in competition experiments (Z′ = 0.36).[11],[20],[21] We hypothesised that the high lipophilicity of 10 (clog P = 6.9) was causing the small binding window, either due to aggregation, even at very low concentrations, or its large hydrate volume.[22] Because the lipophilicity of the specific-ligand portion of the probe was fixed by the need for high affinity to the HSP70 target, we focused on changes to the solvent exposed fluorophore. ATTO-488, a green-shifted fluorophore that contains two sulfonic acid groups, was selected as an alternative to fluorescein (see ESI ^†), as this reduced the clog P of the bisaryl probe 11 to –3.9.[21] The binding window of ATTO-488 bisaryl FP-probe 11 measured at a fixed and apparently saturating concentration of HSP72 (5 μM), was now greater than 150 mP (Z′ = 0.63, Fig. 3A and Fig. S1, ESI ^†). […]
# as §2, §3
# Fluorescence polarisation was measured in units of millipolarization (mP). All experiments were performed in triplicate, unless otherwise stated. Data were plotted and analysed using GraphPad Prism 6, graphical data represents the mean ± standard error of the mean for a single representative experiment. ATP-derived fluorescent probes (1.0 mM in aqueous) were purchased from Jena Bioscience. Human BAG-1M (10.9 μM in 20 mM TRIS base pH 7.4, 100 mM NaCl, 1 mM DTT, 1% (v/v) glycerol) was purchased from Enzo Life Sciences.
# Determination of optimal probe concentration: To each well, 5 μL of HSP72 (10 µM in assay buffer) or 5 μL assay buffer and increasing concentrations of probe (5 μL, two-fold dilution series) were added. Fluorescence polarisation values for the tracer ± protein were plotted using GraphPad prism 6. […]
# Z’ determination: To each well, 5 µL of probe (20 nM in assay buffer) and either 5 µL of HSP70 (in assay buffer) or 5 µL of assay buffer were added. Fluorescent polarisation values from 96 wells were used to calculate the mean and standard deviation for each data set. Z’-factors were calculated using the equation given below (sample refers to probe in the absence of protein and control refers to probe in the presence of protein). […]
# [5] = 180 nM HSP72, 10 nM probe 11, BAG1 buffer, 16 h incubation, geometric mean of at least 3 experiments, read-out: IC50 –BAG1
# [6] = 700 nM BAG1, 140 nM HSP72, 10 nM probe 11, 16 h incubation, geometric mean of at least 3 experiments, read-out: IC50 +BAG1
# T2 sequence (P0DMV8 whole entry): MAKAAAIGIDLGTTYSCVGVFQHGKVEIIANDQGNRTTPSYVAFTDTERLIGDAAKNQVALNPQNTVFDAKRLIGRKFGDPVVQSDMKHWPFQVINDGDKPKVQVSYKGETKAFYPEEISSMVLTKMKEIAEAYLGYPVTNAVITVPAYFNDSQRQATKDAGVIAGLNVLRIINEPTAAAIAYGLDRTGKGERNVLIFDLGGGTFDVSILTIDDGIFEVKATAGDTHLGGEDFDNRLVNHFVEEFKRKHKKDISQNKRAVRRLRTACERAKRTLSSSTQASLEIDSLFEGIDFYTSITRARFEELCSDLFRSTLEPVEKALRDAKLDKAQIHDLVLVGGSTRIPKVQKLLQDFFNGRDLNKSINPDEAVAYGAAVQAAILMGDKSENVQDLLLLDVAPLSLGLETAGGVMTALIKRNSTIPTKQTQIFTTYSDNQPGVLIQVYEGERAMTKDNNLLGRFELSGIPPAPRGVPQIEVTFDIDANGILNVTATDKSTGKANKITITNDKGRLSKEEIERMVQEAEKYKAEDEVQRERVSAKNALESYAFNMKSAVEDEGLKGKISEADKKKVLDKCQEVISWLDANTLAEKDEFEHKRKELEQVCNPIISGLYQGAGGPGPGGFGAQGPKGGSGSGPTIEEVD
# T2 sequence (Q99933 72-345 partner limits assumed): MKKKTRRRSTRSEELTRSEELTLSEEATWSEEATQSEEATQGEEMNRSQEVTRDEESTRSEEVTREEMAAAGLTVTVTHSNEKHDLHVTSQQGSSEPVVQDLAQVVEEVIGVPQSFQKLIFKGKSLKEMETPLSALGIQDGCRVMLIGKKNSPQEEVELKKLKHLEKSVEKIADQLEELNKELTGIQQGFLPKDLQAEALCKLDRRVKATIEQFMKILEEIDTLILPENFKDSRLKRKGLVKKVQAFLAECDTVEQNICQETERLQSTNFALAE
# T1 sequence (P0DMV8 whole entry): as the sequence (P0DMV8 whole entry) above
compound,measurement,setting,value
Nc1ncnc2c1nc(NCc1ccc3ncccc3c1)n2[C@@H]1O[C@H](CO)[C@@H](O)[C@H]1O [compound 12],IC50,[1]; [5],2000 nM
same,change in affinity for HSP72/BAG1 complex compared to primary protein,[2],no significant change
same,IC50,[2]; [6],2000 nM
Nc1ncnc2c1nc(NCc1ccc3ncccc3c1)n2[C@@H]1O[C@H](COCc2ccc(C(F)(F)F)cc2)[C@@H](O)[C@H]1O [compound 2],Kd,[3],60 nM
same,IC50,"[1]; competition with FP-probe 11, HSP72, n = 3, read-out: pIC50 (converted)",135 nM
same,IC50,"[1]; competition with FP-probe 11, HSP72, read-out: IC50",137 nM
"NC(=O)c1cn([C@@H]2O[C@H](CO)[C@@H](O)[C@H]2O)c2ncnc(N)c12 [compound 13, sangivamycin]",IC50,[1],2400 nM
same,IC50,[2],1000 nM
same,change in affinity for HSP72/BAG1 complex compared to primary protein,[2],no significant change
Nc1ncnc2c1ncn2[C@@H]1O[C@H](COP(=O)(O)OP(=O)(O)OP(=O)(O)O)[C@@H](O)[C@H]1O [ATP],IC50,[1]; [5],650 nM
same,IC50,[2]; [6],> 10000 nM
Nc1ncnc2c1ncn2[C@@H]1O[C@H](COP(=O)(O)OP(=O)(O)O)[C@@H](O)[C@H]1O [ADP],IC50,[1]; [5],330 nM
same,IC50,[2]; [6],2200 nM
same,pIC50,"[2]; 700 nM BAG1, n = 3",5.66 ± 0.04
same,decrease in affinity for the secondary complex compared to primary HSP72,[2]; 700 nM BAG1 vs without BAG1,6.8 fold
O=C(NCCCCCCNc1ncnc2c1nc(NCc1ccc3ncccc3c1)n2[C@@H]1O[C@H](COCc2ccc(C(F)(F)F)cc2)[C@@H](O)[C@H]1O)c1ccc(C(=O)O)c(-c2c3ccc(=O)cc-3oc3cc(O)ccc23)c1 [compound 10],Z',[4]; FP assay with HSP72,0.36
same,assay (binding) window,[4]; presence vs absence of 5 μM HSP72,~30 mP
